Where a SMILES comes first, the peptide text is derived from it. Bridges are numbered along the chain shown (N, C = ends). [ ]: non-standard residue; d: D form. The star is where a group is joined. hPhe(3-Cl-4-CF3) = N[C@@H](CCc1ccc(C(F)(F)F)c(Cl)c1)C(=O)O; NPrPhe(4-CF3) = CCCN[C@@H](Cc1ccc(C(F)(F)F)cc1)C(=O)O; NMeGly(cPent) = CN[C@H](C(=O)O)C1CCCC1; Pro(4,4-F2) = O=C(O)[C@@H]1CC(F)(F)CN1; Hyp = O=C(O)[C@@H]1C[C@@H](O)CN1; NMeD = CN[C@@H](CC(=O)O)C(=O)O; NMeL = CN[C@@H](CC(C)C)C(=O)O; Morpholide = C1CN(*)CCO1; Ac5c = NC1(C(=O)O)CCCC1; Aze = O=C(O)[C@@H]1CCN1; Ac4c = NC1(C(=O)O)CCC1; Sar = CNCC(=O)O
Assays:
[1] = target: GDP-bound NRAS wild-type protein (Homo sapiens, UniProt P01111); assay: Binding to NRAS by surface plasmon resonance (SPR), Single Cycle Kinetics; conditions: KD ratio NRAS/KRAS, SPR
GDP-bound NRAS wild-type protein, sequence (P01111 whole entry): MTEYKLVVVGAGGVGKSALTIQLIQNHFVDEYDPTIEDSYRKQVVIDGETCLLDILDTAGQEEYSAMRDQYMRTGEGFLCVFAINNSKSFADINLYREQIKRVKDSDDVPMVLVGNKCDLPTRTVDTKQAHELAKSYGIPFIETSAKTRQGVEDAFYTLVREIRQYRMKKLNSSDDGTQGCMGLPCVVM

[2] = target: GDP-bound HRAS wild-type protein (Homo sapiens, UniProt P01112); assay: Binding to HRAS by surface plasmon resonance (SPR), Single Cycle Kinetics; conditions: KD ratio HRAS/KRAS, SPR
GDP-bound HRAS wild-type protein, sequence (P01112 whole entry): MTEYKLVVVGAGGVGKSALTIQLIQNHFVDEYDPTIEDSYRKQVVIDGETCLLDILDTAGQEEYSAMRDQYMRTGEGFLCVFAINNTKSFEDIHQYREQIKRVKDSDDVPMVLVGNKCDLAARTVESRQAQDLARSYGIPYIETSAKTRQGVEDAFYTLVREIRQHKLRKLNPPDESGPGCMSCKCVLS

SMILES | NRAS/KRAS (ratio of KD value with respect to GDP-bound NRAS wild-type protein to KD value with respect to KRAS) [1] | HRAS/KRAS (ratio of KD value with respect to GDP-bound HRAS wild-type protein to KD value with respect to KRAS) [2]
CCCN1C(=O)[C@@H]2CCN2C(=O)CN(C)C(=O)[C@H]([C@@H](C)CC)NC(=O)[C@H](CC(C)C)N(C)C(=O)C[C@@H](C(=O)N2CCOCC2)N(C)C(=O)[C@H](C2CCCC2)N(C)C(=O)C2(CCC2)NC(=O)[C@@H]2CC(F)(F)CN2C(=O)[C@H](CCc2ccc(C(F)(F)F)c(Cl)c2)NC(=O)CN(C)C(=O)[C@@H]1Cc1ccc(C(F)(F)F)cc1 [PP0409] ([NMeL]I[Sar][Aze][NPrPhe(4-CF3)][Sar][hPhe(3-Cl-4-CF3)][Pro(4,4-F2)][Ac4c][NMeGly(cPent)][NMeD]-Morpholide; lactam N-11) | C (A compound having a KD ratio of 0.1 or more and less than 3 is denoted as C) | C (A compound having a KD ratio of 0.1 or more and less than 3 is denoted as C)
CCCN1C(=O)[C@@H]2CCN2C(=O)CN(C)C(=O)[C@H]([C@@H](C)CC)NC(=O)[C@H](CC(C)C)N(C)C(=O)C[C@@H](C(=O)N2CCOCC2)N(C)C(=O)[C@H](C2CCCC2)N(C)C(=O)C2(CCCC2)NC(=O)[C@@H]2C[C@@H](OCC)CN2C(=O)[C@H](CCc2ccc(C(F)(F)F)c(Cl)c2)NC(=O)CN(C)C(=O)[C@@H]1Cc1ccc(C(F)(F)F)cc1 [PP0410] ([NMeL]I[Sar][Aze][NPrPhe(4-CF3)][Sar][hPhe(3-Cl-4-CF3)][Hyp](Et)[Ac5c][NMeGly(cPent)][NMeD]-Morpholide; lactam N-11) | C (A compound having a KD ratio of 0.1 or more and less than 3 is denoted as C) | B (a compound having 3 or more and less than 10 is denoted as B)
CCCN1C(=O)[C@@H]2CCN2C(=O)CN(C)C(=O)[C@H]([C@@H](C)CC)NC(=O)[C@H](CC(C)C)N(C)C(=O)C[C@@H](C(=O)N2CCOCC2)N(C)C(=O)[C@H](C2CCCC2)N(C)C(=O)C2(CCC2)NC(=O)[C@@H]2C[C@@H](OCC)CN2C(=O)[C@H](CCc2ccc(C(F)(F)F)c(Cl)c2)NC(=O)CN(C)C(=O)[C@@H]1Cc1ccc(C(F)(F)F)cc1 [PP0411] ([NMeL]I[Sar][Aze][NPrPhe(4-CF3)][Sar][hPhe(3-Cl-4-CF3)][Hyp](Et)[Ac4c][NMeGly(cPent)][NMeD]-Morpholide; lactam N-11) | C (A compound having a KD ratio of 0.1 or more and less than 3 is denoted as C) | C (A compound having a KD ratio of 0.1 or more and less than 3 is denoted as C)
CCCN1C(=O)CN(C)C(=O)CN(C)C(=O)[C@H]([C@@H](C)CC)NC(=O)[C@H](CC(C)C)N(C)C(=O)C[C@@H](C(=O)N(C)C)N(C)C(=O)[C@H](C2CCCC2)N(C)C(=O)C2(CCC2)NC(=O)[C@@H]2CCCN2C(=O)[C@H](CCc2ccc(C(F)(F)F)c(Cl)c2)NC(=O)CN(C)C(=O)[C@@H]1Cc1ccc(C(F)(F)F)cc1 [PP0412] ([NMeL]I[Sar][Sar][NPrPhe(4-CF3)][Sar][hPhe(3-Cl-4-CF3)]P[Ac4c][NMeGly(cPent)][NMeD]-NMe2; lactam N-11) | B (a compound having 3 or more and less than 10 is denoted as B) | C (A compound having a KD ratio of 0.1 or more and less than 3 is denoted as C)
CCCN1C(=O)CN(C)C(=O)CN(C)C(=O)[C@H]([C@@H](C)CC)NC(=O)[C@H](CC(C)C)N(C)C(=O)C[C@@H](C(=O)N(C)C)N(C)C(=O)[C@H](C2CCCC2)N(C)C(=O)C2(CCCC2)NC(=O)[C@@H]2CC(F)(F)CN2C(=O)[C@H](CCc2ccc(C(F)(F)F)c(Cl)c2)NC(=O)CN(C)C(=O)[C@@H]1Cc1ccc(C(F)(F)F)cc1 [PP0413] ([NMeL]I[Sar][Sar][NPrPhe(4-CF3)][Sar][hPhe(3-Cl-4-CF3)][Pro(4,4-F2)][Ac5c][NMeGly(cPent)][NMeD]-NMe2; lactam N-11) | C (A compound having a KD ratio of 0.1 or more and less than 3 is denoted as C) | C (A compound having a KD ratio of 0.1 or more and less than 3 is denoted as C)
CCCN1C(=O)CN(C)C(=O)CN(C)C(=O)[C@H]([C@@H](C)CC)NC(=O)[C@H](CC(C)C)N(C)C(=O)C[C@@H](C(=O)N(C)C)N(C)C(=O)[C@H](C2CCCC2)N(C)C(=O)C2(CCC2)NC(=O)[C@@H]2CC(F)(F)CN2C(=O)[C@H](CCc2ccc(C(F)(F)F)c(Cl)c2)NC(=O)CN(C)C(=O)[C@@H]1Cc1ccc(C(F)(F)F)cc1 [PP0414] ([NMeL]I[Sar][Sar][NPrPhe(4-CF3)][Sar][hPhe(3-Cl-4-CF3)][Pro(4,4-F2)][Ac4c][NMeGly(cPent)][NMeD]-NMe2; lactam N-11) | B (a compound having 3 or more and less than 10 is denoted as B) | C (A compound having a KD ratio of 0.1 or more and less than 3 is denoted as C)
CCCN1C(=O)CN(C)C(=O)CN(C)C(=O)[C@H]([C@@H](C)CC)NC(=O)[C@H](CC(C)C)N(C)C(=O)C[C@@H](C(=O)N(C)C)N(C)C(=O)[C@H](C2CCCC2)N(C)C(=O)C2(CCCC2)NC(=O)[C@@H]2C[C@@H](OCC)CN2C(=O)[C@H](CCc2ccc(C(F)(F)F)c(Cl)c2)NC(=O)CN(C)C(=O)[C@@H]1Cc1ccc(C(F)(F)F)cc1 [PP0415] ([NMeL]I[Sar][Sar][NPrPhe(4-CF3)][Sar][hPhe(3-Cl-4-CF3)][Hyp](Et)[Ac5c][NMeGly(cPent)][NMeD]-NMe2; lactam N-11) | B (a compound having 3 or more and less than 10 is denoted as B) | B (a compound having 3 or more and less than 10 is denoted as B)
CCCN1C(=O)CN(C)C(=O)CN(C)C(=O)[C@H]([C@@H](C)CC)NC(=O)[C@H](CC(C)C)N(C)C(=O)C[C@@H](C(=O)N(C)C)N(C)C(=O)[C@H](C2CCCC2)N(C)C(=O)C2(CCC2)NC(=O)[C@@H]2C[C@@H](OCC)CN2C(=O)[C@H](CCc2ccc(C(F)(F)F)c(Cl)c2)NC(=O)CN(C)C(=O)[C@@H]1Cc1ccc(C(F)(F)F)cc1 [PP0416] ([NMeL]I[Sar][Sar][NPrPhe(4-CF3)][Sar][hPhe(3-Cl-4-CF3)][Hyp](Et)[Ac4c][NMeGly(cPent)][NMeD]-NMe2; lactam N-11) | B (a compound having 3 or more and less than 10 is denoted as B) | C (A compound having a KD ratio of 0.1 or more and less than 3 is denoted as C)
CCCN1C(=O)CN(C)C(=O)CNC(=O)[C@H]([C@@H](C)CC)NC(=O)[C@H](CC(C)C)N(C)C(=O)C[C@@H](C(=O)N(C)C)N(C)C(=O)[C@H](C2CCCC2)N(C)C(=O)C2(CCCC2)NC(=O)[C@@H]2CCCN2C(=O)[C@H](CCc2ccc(C(F)(F)F)c(Cl)c2)NC(=O)CN(C)C(=O)[C@@H]1Cc1ccc(C(F)(F)F)cc1 [PP0417] ([NMeL]IG[Sar][NPrPhe(4-CF3)][Sar][hPhe(3-Cl-4-CF3)]P[Ac5c][NMeGly(cPent)][NMeD]-NMe2; lactam N-11) | B (a compound having 3 or more and less than 10 is denoted as B) | C (A compound having a KD ratio of 0.1 or more and less than 3 is denoted as C)
CCCN1C(=O)CN(C)C(=O)CNC(=O)[C@H]([C@@H](C)CC)NC(=O)[C@H](CC(C)C)N(C)C(=O)C[C@@H](C(=O)N(C)C)N(C)C(=O)[C@H](C2CCCC2)N(C)C(=O)C2(CCC2)NC(=O)[C@@H]2CCCN2C(=O)[C@H](CCc2ccc(C(F)(F)F)c(Cl)c2)NC(=O)CN(C)C(=O)[C@@H]1Cc1ccc(C(F)(F)F)cc1 [PP0418] ([NMeL]IG[Sar][NPrPhe(4-CF3)][Sar][hPhe(3-Cl-4-CF3)]P[Ac4c][NMeGly(cPent)][NMeD]-NMe2; lactam N-11) | B (a compound having 3 or more and less than 10 is denoted as B) | C (A compound having a KD ratio of 0.1 or more and less than 3 is denoted as C)
CCCN1C(=O)CN(C)C(=O)CNC(=O)[C@H]([C@@H](C)CC)NC(=O)[C@H](CC(C)C)N(C)C(=O)C[C@@H](C(=O)N(C)C)N(C)C(=O)[C@H](C2CCCC2)N(C)C(=O)C2(CCCC2)NC(=O)[C@@H]2CC(F)(F)CN2C(=O)[C@H](CCc2ccc(C(F)(F)F)c(Cl)c2)NC(=O)CN(C)C(=O)[C@@H]1Cc1ccc(C(F)(F)F)cc1 [PP0419] ([NMeL]IG[Sar][NPrPhe(4-CF3)][Sar][hPhe(3-Cl-4-CF3)][Pro(4,4-F2)][Ac5c][NMeGly(cPent)][NMeD]-NMe2; lactam N-11) | B (a compound having 3 or more and less than 10 is denoted as B) | C (A compound having a KD ratio of 0.1 or more and less than 3 is denoted as C)
CCCN1C(=O)CN(C)C(=O)CNC(=O)[C@H]([C@@H](C)CC)NC(=O)[C@H](CC(C)C)N(C)C(=O)C[C@@H](C(=O)N(C)C)N(C)C(=O)[C@H](C2CCCC2)N(C)C(=O)C2(CCC2)NC(=O)[C@@H]2CC(F)(F)CN2C(=O)[C@H](CCc2ccc(C(F)(F)F)c(Cl)c2)NC(=O)CN(C)C(=O)[C@@H]1Cc1ccc(C(F)(F)F)cc1 [PP0420] ([NMeL]IG[Sar][NPrPhe(4-CF3)][Sar][hPhe(3-Cl-4-CF3)][Pro(4,4-F2)][Ac4c][NMeGly(cPent)][NMeD]-NMe2; lactam N-11) | B (a compound having 3 or more and less than 10 is denoted as B) | C (A compound having a KD ratio of 0.1 or more and less than 3 is denoted as C)
